{"source": "patent US4727061A", "about": "“Pharmaceutical preparations having diuretic activity” (Rohm GmbH, priority 1984, dated 1988)", "system": "female Sprague-Dawley rats", "assay": "Natriuretic activity in anesthetized, catheterized rats under i.v. saline/fructose infusion (method of Kramer et al.)", "type": "in vivo", "conditions": "250 micrograms of peptide per rat", "source_text": "In the test protocol employed, female Sprague-Dawley rats weighing from 206 to 250 g were used as test animals. Before the test, the rats were exposed to a normal diet and had free access to food and water. On the day of the test, the rats were anesthetized with methohexital and catheters were inserted in the aorta and the jugular vein and from there through the abdomen in the bladder.\nThe animals were then placed into individual cages mounted on a scale. A 0.45% saline solution with 2.5% fructose was then administered to them intravenously at a rate ranging from 33 to 62 microliters per minute so that the body weight remained constant. Two hours after the animals had recovered, 15 minute urine collection periods were initiated and continued throughout the test. The diuretic material to be tested was dissolved (at pH 7.4) in the infusion solution, which contained tris HCl as a buffer. In the case of the fractions characterized by natriuresis, 15 minute urine samples were collected until the sodium excretion had again reached the base line, and the rate of infusion was adjusted so that the body weight remained constant. The arterial blood pressure was monitored throughout the test by means of a pressure measuring apparatus (Statham P-23-Db). The sodium and potassium concentrations in serum and urine were monitored by flame photometry.\n250 micrograms of the peptide substance to be tested were administered to each rat.\n(2) Sodium excretion in treated rats in micromoles per minute per milligram of administered substance of formula I.\n(3) Time of maximum activity (tmax) in minutes.\n(4) Increase in natriuresis as quotient F=(Na^+ excretion after treatment)/(Na^+ excretion before treatment).", "data": [{"substance": "Gly-Gly", "values": [{"measurement": "(3) Time of maximum activity (tmax)", "result": "1.5 to 2.5", "unit": "h"}, {"measurement": "(4) Increase in natriuresis as quotient F = (Na+ excretion after treatment)/(Na+ excretion before treatment)", "result": 39.8}, {"measurement": "(2) Na+ excretion in treated rats", "setting": "treated rats, in the i.v. infusion solution, pH 7.4, 15 minute urine collections", "result": "14.7 micromoles per minute per mill"}, {"measurement": "(2) Q = K+/Na+ in treated rats", "setting": "treated rats, urinary K+/Na+ quotient", "result": 0.63}]}]}
